Results taken from US20140357512A1, “HISTONE DEACETYLASE (HDAC) BIOMARKERS IN MULTIPLE MYELOMA” (priority 2013, published 2014).

System: human myeloma cell line MM.1S
Test: SILAC acetylated-lysine peptide profiling, HDAC inhibitor vs DMSO (light/heavy ratio)
Type: cell-based
Excerpt: An embodiment of the invention comprises utilizing the SILAC method in order to quantitate changes in protein expression between two or more populations of cells. The SILAC method is a technique based on mass spectrometry that detects differences in protein abundance among samples using non-radioactive isotopic labeling. The SILAC method is known in the art, and described in detail in Ong et al., “Stable Isotope Labeling by Amino Acids in Cell Culture, SILAC, as a Simple and Accurate Approach to Expression Proteomics”, Molecular & Cellular Proteomics, vol. 1, pp. 376-386 (2002), which is incorporated herein by reference in its entirety.
Briefly, the SILAC method involves growing two populations of cells in cell culture. The first population of cells is grown in growth media containing normal amino acids (“normal media”). The second population of cells is grown in media lacking a standard essential amino acid (such as lysine), but is then supplemented with a non-radioactive, isotopically labeled form of that essential amino acid (such as lysine labeled with ^13C atoms, rather than normal ^12C atoms), which is called “heavy media”. When the two populations of cells are each growing in the medium, they incorporate the amino acids into all of their proteins. The growth of cells maintained in the heavy media is no different from that in normal media. All peptides containing the heavy amino acids are heavier than their normal counterparts. The cells from each of the two populations of cells are lysed. The lysates from each of the two cell populations are then combined. The combined cell lysates are then analyzed by mass spectrometry. Pairs of chemically identical peptides of different stable isotope composition can be differentiated in a mass spectrometer due to their difference in mass. The ratio of peak intensities in the mass spectrum for such peptide pairs reflects the abundance ratio for the two proteins.
This example describes SILAC studies that were performed to compare the effects of three different HDAC inhibitors (Compound A, Compound B, and tubastatin A) to a control on a human multiple myeloma cell line. The HDAC inhibitors were also compared amongst themselves to determine differences in their effects.
A human myeloma cell line MM.1S was grown using either ^12C (light) or ^13C (heavy) lysine containing culture medium. The “heavy” cells were treated with DMSO as the control, and the “light” cells were treated with a single HDAC inhibitor at 37° C. for 6 hours. The heavy and light cells were lysed, and the lysates were mixed in 1:1 ratio and digested with the protease trypsin. The acetylated lysine containing peptides (due to the action of the HDAC inhibitor) in the digested peptide pool were captured by a non-specific anti-acetylated lysine antibody cocktail (the antibodies identify both light and heavy acetylated peptides), and subjected to mass spectrometry analysis in order to identify thousands of individual peptides.
Thousands of peptides were identified in pairs (^12C and ^13C) due to their known mass differences. The amino acid sequence and quantitative ratio (Light/Heavy) of a given peptide in two differentially treated cell lysates were then determined and annotated with their possible protein (gene) sources.
As stated above, three HDAC inhibitors (Compound A, Compound B, and Tubastatin A) were used. Thus, the SILAC method was performed three times, with a different HDAC inhibitor compared to a control each time. Accordingly, there are three pairs of quantitative data in the table below, i.e., Compound A:DMSO, Compound B:DMSO, and Tubastatin A:DMSO. A cut-off of 1.30 fold of change (increase or decrease) was then used to determine “changed” or “+” in the table, and any peptides with a fold of change less than 1.3 fold were determined to be “unchanged” or “0” in the table. Those peptides that were not identified were marked as “NA” in the table. […]

Q: `CN1CCc2c(c3ccccc3n2Cc2ccc(C(=O)NO)cc2)C1` [Tub A] was tested. Which “light to heavy ratio (L/H ratio), log 2 scale, acetylated peptide VGDK(ac)VLLPEYGGTK (SEQ ID NO: 773)” value (10 kDa heat shock protein mitochondrial [70], gene HSPE1, drug:DMSO) did it give?
A: 0.00

Q: And the “light to heavy ratio (L/H ratio) of acetylated peptide IQEVLK(ac)HAR (SEQ ID NO: 264)” value (39S ribosomal protein L20 mitochondrial [26], MRPL20, drug:DMSO)?
A: 0.38 log 2

Q: What about the “light to heavy ratio (L/H ratio) of acetylated peptide FK(ac)LITEDVQGK (SEQ ID NO: 287)” value (40S ribosomal protein S3a [85], SNORD73A, RPS3A, drug:DMSO) of the same compound?
A: −0.66 log 2

Q: What about the “light to heavy ratio (L/H ratio) of acetylated peptide KDVHMPK(ac)HPELADK (SEQ ID NO: 353)” value (40S ribosomal protein S10 [31], RPS10, drug:DMSO) of the same compound?
A: 0.00 log 2

Q: What about the “light to heavy ratio (L/H ratio) of acetylated peptide NK(ac)IAGYVTHLMK (SEQ ID NO: 559)” value (40S ribosomal protein S17 [49], gene RPS17, RPS17L, inhibitor:DMSO) of the same compound?
A: 0.00 log 2

Q: And the “light to heavy ratio (L/H ratio) of acetylated peptide GIVLEK(ac)VGVEAK (SEQ ID NO: 320)” value (40S ribosomal protein S23 [54], RPS23, drug:DMSO)?
A: −0.55 log 2

Q: And the “light to heavy ratio (L/H ratio), log 2 scale, acetylated peptide ALEK(ac)IDLK (SEQ ID NO: 813)” value (60S ribosomal protein L3 [362], gene SNORD43, RPL3, drug:DMSO)?
A: 0.00

Q: And the “light to heavy ratio (L/H ratio) of acetylated peptide IPK(ac)HLTDAYFK (SEQ ID NO: 259)” value (60S ribosomal protein L6 [211], RPL6, drug:DMSO)?
A: −0.63 log 2

Q: And the “light to heavy ratio (L/H ratio) of acetylated peptide GPLDK(ac)WR (SEQ ID NO: 622)” value (60S ribosomal protein L10-like [208], gene RPL10L, inhibitor:DMSO)?
A: 0.00 log 2

Q: What about the “light to heavy ratio (L/H ratio), log 2 scale, acetylated peptide YMVK(ac)SCGK (SEQ ID NO: 811)” value (60S ribosomal protein L10 [78], gene SNORA70, RPL10, drug:DMSO) of the same compound?
A: 0.00

Q: What about the “light to heavy ratio (L/H ratio) of acetylated peptide VITEEEK(ac)NFK (SEQ ID NO: 522)” value (60S ribosomal protein L13 [174], gene RPL13, inhibitor:DMSO) of the same compound?
A: 0.00 log 2

Q: And the “light to heavy ratio (L/H ratio) of acetylated peptide LAAIVAK(ac)QVLLGR (SEQ ID NO: 505)” value (60S ribosomal protein L13a [25], gene SNORD32A, RPL13A, SNORD33, SNORD34, inhibitor:DMSO)?
A: 0.00 log 2

Q: And the “light to heavy ratio (L/H ratio) of acetylated peptide K(ac)FAYLGR (SEQ ID NO: 614)” value (60S ribosomal protein L13a [134], gene SNORD32A, RPL13A, SNORD33, SNORD34, inhibitor:DMSO)?
A: 0.00 log 2

Q: And the “light to heavy ratio (L/H ratio), log 2 scale, acetylated peptide LAHEVGWK(ac)[…] (SEQ ID NO: 812)” value (60S ribosomal protein L13a [148], gene SNORD32A, RPL13A, SNORD33, SNORD34, drug:DMSO)?
A: 0.00

Q: What about the “light to heavy ratio (L/H ratio) of acetylated peptide RNPDTQWITK(ac)PVHK (SEQ ID NO: 581)” value (60S ribosomal protein L15 [153], gene RPL15, inhibitor:DMSO) of the same compound?
A: 0.00 log 2

Q: And the “light to heavy ratio (L/H ratio), log 2 scale, acetylated peptide YSVDIPLDK(ac)TVVNK (SEQ ID NO: 807)” value (60S ribosomal protein L27 [93], gene RPL27, drug:DMSO)?
A: 0.00

Q: What about the “light to heavy ratio (L/H ratio), log 2 scale, acetylated peptide TVVNK(ac)DVFR (SEQ ID NO: 766)” value (60S ribosomal protein L27 [98], gene RPL27, drug:DMSO) of the same compound?
A: 0.00

Q: And the “light to heavy ratio (L/H ratio) of acetylated peptide NCSSFLIK(ac)R (SEQ ID NO: 558)” value (60S ribosomal protein L28 [19], gene RPL28, inhibitor:DMSO)?
A: 0.00 log 2

Q: And the “light to heavy ratio (L/H ratio) of acetylated peptide LWSK(ac)AIFAGYK (SEQ ID NO: 538)” value (60S ribosomal protein L35a [8], gene RPL35A, inhibitor:DMSO)?
A: 0.00 log 2

Q: What about the “light to heavy ratio (L/H ratio) of acetylated peptide AIFAGYK(ac)R (SEQ ID NO: 300)” value (60S ribosomal protein L35a [15], RPL35A, drug:DMSO) of the same compound?
A: 0.44 log 2

Q: And the “light to heavy ratio (L/H ratio) of acetylated peptide VMEHFIK(ac)LYK (SEQ ID NO: 276)” value (78 kDa glucose-regulated protein [268], HSPA5, drug:DMSO)?
A: −0.66 log 2

Q: What about the “light to heavy ratio (L/H ratio) of acetylated peptide AK(ac)FEELNMDLFR (SEQ ID NO: 266)” value (78 kDa glucose-regulated protein [326], HSPA5, drug:DMSO) of the same compound?
A: −0.52 log 2

Q: And the “L/H ratio of acetylated peptide” value ((ac)AVPPTYADLGK(ac)SAR (SEQ ID NO: 464), Voltage-dependent anion-selective channel protein 1 [12], VDAC1)?
A: 0.00 log 2

Q: What about the “light to heavy ratio (L/H ratio) of acetylated peptide, log 2 scale” value ((ac)SIGVPIK(ac)VLHEAEGHIVTCETNTGEVYR (SEQ ID NO: 224), Small nuclear ribonucleoprotein Sm D3 [8], SNRPD3) of the same compound?
A: 0.40

Q: What about the “L/H ratio of acetylated peptide” value ((ac)SSNECFK(ac)CGR (SEQ ID NO: 379), Isoform 1 of Cellular nucleic acid-binding protein [8], CNBP) of the same compound?
A: 0.00 log 2

Q: What about the “light to heavy ratio (L/H ratio) of acetylated peptide, log 2 scale” value ((ac)SVFGK(ac)LFGAGGGK (SEQ ID NO: 143), Charged multivesicular body protein 4b [6], CHMP4B) of the same compound?
A: −0.39

Q: What about the “L/H ratio of acetylated peptide IHNFGLIQEK(ac)LAR (SEQ ID NO: 19)” value (ACADVL [428], log 2 scale, drug vs DMSO) of the same compound?
A: −0.60

Q: And the “L/H ratio of acetylated peptide NLQK(ac)EVIHR (SEQ ID NO: 125)” value (ACOX1 [504], log 2 scale, drug vs DMSO)?
A: 0.54

Q: And the “L/H ratio of acetylated peptide LDHLAEK(ac)FR (SEQ ID NO: 20)” value (ACTN1 [398], log 2 scale, drug vs DMSO)?
A: −0.51

Q: What about the “L/H ratio of acetylated peptide LVDQSGPPHEPK(ac)FVYQAK (SEQ ID NO: 126)” value (ADAR [757], log 2 scale, drug vs DMSO) of the same compound?
A: −0.41

Q: And the “light to heavy ratio (L/H ratio) of acetylated peptide, log 2 scale” value (ADINTK(ac)WAATR (SEQ ID NO: 202), Ribosomal protein L14 variant [85], RPL14)?
A: −0.50

Q: And the “light to heavy ratio (L/H ratio) of acetylated peptide, log 2 scale” value (ADK(ac)DYHFK (SEQ ID NO: 191), Isoform 2 of Nucleophosmin [27], NPM1)?
A: −0.60

Q: And the “light to heavy ratio (L/H ratio) of acetylated peptide IFGSNK(ac)WTTEQQQR (SEQ ID NO: 306)” value (ADP-ribosylation factor-like protein 6-interacting protein 1 [96], ARL6IP1, drug:DMSO)?
A: 0.45 log 2

Q: And the “light to heavy ratio (L/H ratio) of acetylated peptide TTLLYK(ac)LK (SEQ ID NO: 624)” value (ADP-ribosylation factor-like protein 11 [31], gene ARL11, inhibitor:DMSO)?
A: 0.00 log 2

Q: What about the “light to heavy ratio (L/H ratio) of acetylated peptide IFK(ac)SDGLR (SEQ ID NO: 280)” value (ADP/ATP translocase 1 [166], SLC25A4, drug:DMSO) of the same compound?
A: 0.48 log 2

Q: What about the “light to heavy ratio (L/H ratio) of acetylated peptide ITK(ac)SDGIR (SEQ ID NO: 587)” value (ADP/ATP translocase 3 [166], gene SLC25A6, inhibitor:DMSO) of the same compound?
A: 0.00 log 2

Q: And the “L/H ratio of acetylated peptide HLSDSINQK(ac)HFEQAIER” value (AFG3L2 [543], log 2 scale, drug vs DMSO)?
A: −0.39

Q: And the “light to heavy ratio (L/H ratio) of acetylated peptide, log 2 scale” value (AFYK(ac)SFSK (SEQ ID NO: 170), Endoplasmin [360], HSP90B1)?
A: −1.00

Q: And the “light to heavy ratio (L/H ratio) of acetylated peptide, log 2 scale” value (AGVNTVTTLVENK(ac)K (SEQ ID NO: 206), 60S ribosomal protein L7a [150], RPL7A, SNORD24)?
A: −0.42

Q: And the “light to heavy ratio (L/H ratio) of acetylated peptide, log 2 scale” value (AGYNVK(ac)QLFR (SEQ ID NO: 199), Isoform 1 of Ras-related protein Rab-6A [164], RAB6A)?
A: 0.45

Q: What about the “light to heavy ratio (L/H ratio) of acetylated peptide, log 2 scale” value (AHPVFYQGTYSQALNDAK(ac)R (SEQ ID NO: 153), FAS-associated factor 2 [167], FAF2) of the same compound?
A: −0.48

Q: What about the “L/H ratio of acetylated peptide LK(ac)DISTLEPLKK (SEQ ID NO: 21)” value (ANP32B [101], log 2 scale, drug vs DMSO) of the same compound?
A: −0.56

Q: What about the “L/H ratio of acetylated peptide QRQEVCQSYK(ac)SLYGK (SEQ ID NO: 22)” value (ANXA6 [63], log 2 scale, drug vs DMSO) of the same compound?
A: 0.68

Q: What about the “L/H ratio of acetylated peptide LGTDESK(ac)FNAVLCSR (SEQ ID NO: 7)” value (ANXA11 [478], log 2 scale, drug vs DMSO) of the same compound?
A: −0.44
